Experimental data published in patent US3987177A, “Vincaminic acid esters” (Synthelabo, priority 1974, dated 1976).
Counter-ions that a name gives are not always drawn. Like-named read-outs stand apart in the source and are kept apart here.

Assays:
[1] = test system: mice of the strain CD1; assay: Acute toxicity (50% lethal dose) in mice; type: in vivo; details: for toxicity compared to vincamine, lower by a factor, intraperitoneal: intraperitoneally; for toxicity compared to vincamine, lower by a factor, intraperitoneal / toxicity compared to vincamine, lower by a factor, oral: factor vs vincamine; for toxicity compared to vincamine, lower by a factor, oral: orally
[2] = test system: Mice of the CD1 strain; assay: Anoxia test on mice under low (oxygen) pressure conditions; type: in vivo; details: for Protective activity in the anoxia test under reduced pressure conditions, MAD (mean active dose, increases the survival time by 100%): CD1 mice, intraperitoneally 10 minutes before the test, 190 mm of mercury (5.25% oxygen), expressed as the base; for anti-anoxia activity compared to vincamine: mice, in words
Method: Mice of the CD1 strain are kept in an atmosphere depleted in oxygen, by producing a partial vacuum (190 mm of mercury, corresponding to 5.25% of oxygen).
The survival time of the animals is noted. This time is increased by agents capable of assisting tissue oxygenation and in particular cerebal oxygenation. The compounds studied are administered in several doses intraperitoneally 10 minutes before the test. The percentage increases in the survival time relative to the values obtained with comparison animals are calculated. The mean active dose (MAD), the dose which increases the survival time by 100%, is determined graphically.

[3] = Acute toxicity (50% lethal dose) in mice; type: in vivo; details: mouse, in vivo
[4] = test system: femoral artery of dogs; details: in words; no test or source given; cited from earlier work
[5] = Water solubility; type: physicochemical; details: methylsulphonic acid salt
[6] = ip, CD1 mice, intraperitoneal, mortality recorded for 7 days, read-out: Acute toxicity LD50, intraperitoneal
[7] = mice, oral, read-out: Acute toxicity LD50, oral

SMILES	Acute toxicity LD50, intraperitoneal ([1]; CD1 mice, intraperitoneal, mortality recorded for 7 days)	toxicity compared to vincamine, lower by a factor, intraperitoneal ([1]; mice)	Acute toxicity LD50, oral ([1]; mice, oral, 10080 min)	toxicity compared to vincamine, lower by a factor, oral ([1]; mice)	Protective activity in the anoxia test under reduced pressure conditions, MAD (mean active dose, increases the survival time by 100%) [2]	anti-anoxia activity compared to vincamine [2]	LD50 at 168 h [3, 6]	LD50 at 168 h [3, 7]	vasodilating activity compared to papaverine (known compounds) [4]	water solubility (in words) [5]
CC[C@@]12C=C(C(=O)OC3CC(C)CC(C)(C)C3)n3c4c(c5ccccc53)CCN(CCC1)[C@H]42.Cl (some centres unmarked) [Example 1, 3,3,5-Trimethylcyclohexyl apovincaminate]	430 mg/kg	2	2100 mg/kg	about 5	5.5 mg/kg	markedly greater than that of vincamine				
CC[C@]12CCCN3CCc4c(n(c5ccccc45)[C@@](O)(C(=O)OC)C1)[C@@H]32 [Vincamine, reference compound]					8 mg/kg		215 mg/kg	460 mg/kg	at most equal to that of papaverine	
CCC12C=C(C(=O)OC3CC(C)CC(C)(C)C3)n3c4c(c5ccccc53)CCN(CCC1)C42 (centres unmarked) [Example 3, methylsulphonic acid salt of 3,3,5-trimethylcyclohexyl apovincaminate]		2		about 5	5 mg/kg	markedly greater than that of vincamine	440 mg/kg	2800 mg/kg		water-soluble
